Reference: patent US6803046B2, “Sincalide formulations” (Bracco International B.V., priority 2002, dated 2004)

Tests used:
[1] = Effect of amino acids on sincalide recovery and related impurities; assay type: physicochemical; conditions: for improvement in sincalide recovery vs control without lysine: lyophilized formulations
Experimental: Experiments were conducted to evaluate several amino acids as potential stabilizers of sincalide, including the non-polar (hydrophobic) methionine residue, aspartic acid and glutamic acid, the polar glycine and cysteine residues, and the basic lysine and arginine amino acids. […]
For comparison to the non-polar amino acid methionine as a potential processing stabilizer, polar amino acids such as glycine and cysteine were also evaluated. Formulations containing these amino acids were exposed to air in open vials and compared to product in closed vials. […] Table 23 presents the sincalide recoveries for experimental formulations containing variable concentrations of methionine, cysteine or glycine. […]

[2] = Effect of antioxidants on sincalide formulation stability (HPLC); conditions: for effect of antioxidant on sincalide stability (in words): antioxidant 10 μg/mL in reconstituted sincalide formulation, over 15 hours; for % Sincalide / % Total Sincalide-Related Impurities: antioxidant 10 μg/mL
Experimental: An experiment was performed to evaluate the addition of antioxidants as stabilizing agents to prevent sincalide oxidation in formulations of sincalide (formulations for Example 4 contained 85 mg/mL mannitol, 0.005 mg/mL TWEEN® 20, 2.75 mg/mL KH2PO4, 1.0 mg/mL DTPA, 2.0 mg/mL methionine, 7.5 mg/mL lysine, 15 mg/mL arginine, 0.0025 mg/mL sincalide (Bulk formulation), except placebos which contained no sincalide.) The formation of sincalide methionine (Met 3 or Met 6) monosulfoxides, desulfated sincalide and unknown degradants was investigated. The effectiveness of sodium metabisulfite, ascorbic acid, cysteine, glutathione, sodium sulfate, benzalkonium chloride, and benzethonium chloride in inhibiting the degradation of sincalide in terms of their effect on sincalide recovery and sincalide-related impurities, was evaluated by HPLC.
The effect of various antioxidants on the stabilization of sincalide was evaluated on open and sealed sincalide formulations over 15 hours. The antioxidants were separately added at a concentration of 10 μg/mL to water-reconstituted lyophilized sincalide formulations containing all formulation ingredients except antioxidant. Spiked and unspiked solutions were pooled, subdivided, and either exposed to or protected from air over 15 hours. The sincalide and total sincalide-related impurities were monitored by reversed-phase HPLC with gradient elution and UV detection at 215 nm to compare the effectiveness of the antioxidants.
To optimize the level of sodium metabisulfite in the formulation, lyophilized sincalide formulations were prepared containing four levels of sodium metabisulfite (0, 10, 30, and 60 μg/vial), as summarized in Table 13. Samples at each concentration were maintained under unstressed and stressed (65 ° C., 64 hours) storage conditions, and were subsequently assayed by HPLC. The “% sincalide” was determined, and the “% (Met 6) monosulfoxide” (tR≈19.7 min.) was monitored as an indication of sincalide oxidation.
Another experiment was conducted under longer-term accelerated storage conditions utilizing a sincalide formulation with the optimized concentration (40 μg/vial) of sodium metabisulfite to confirm the protective effect on the degradation of sincalide. Sincalide lyophilized formulations with and without the antioxidant from the same batch were heat-stressed at 40° C. and 60° C. for 6 weeks. Also, formulations without sincalide from the same batch were heat-stressed at 40° C. for 8 months.

[3] = Table 23, bulk formulation, amino acid 2.0 mg/mL Bulk
[4] = Table 23, bulk formulation, amino acid 2.5 mg/mL Bulk
[5] = bulk formulation, L-Methionine 0.00 mg/mL Bulk
[6] = bulk formulation, L-Methionine 0.025 mg/mL Bulk
[7] = bulk formulation, L-Methionine 0.50 mg/mL Bulk
[8] = bulk formulation, L-Methionine 2.0 mg/mL Bulk

Compound	% Sincalide ([2]; Open, 1 h) [%]	% Total Sincalide-Related Impurities ([2]; Open, 1 h) [%]	% Sincalide ([2]; Open, 8 h) [%]	% Total Sincalide-Related Impurities ([2]; Open, 8 h) [%]	% Sincalide ([2]; Open, 15 h) [%]	% Total Sincalide-Related Impurities ([2]; Open, 15 h) [%]	% Sincalide ([2]; Sealed, 0 h) [%]	% Total Sincalide-Related Impurities ([2]; Sealed, 0 h) [%]	% Sincalide ([2]; Sealed, 7 h) [%]	% Total Sincalide-Related Impurities ([2]; Sealed, 7 h) [%]	% Sincalide ([2]; Sealed, 14 h) [%]	% Total Sincalide-Related Impurities ([2]; Sealed, 14 h) [%]	other results
NCCCCC(N)C(=O)O (racemic) [DL-Lysine]	–	–	–	–	–	–	–	–	–	–	–	–	improvement in sincalide recovery vs control without lysine ([1]; 3 weeks storage at 40° C.): 50%; improvement in sincalide recovery vs control without lysine ([1]; 5 weeks storage at 40° C.): 75%
CSCC[C@H](N)C(=O)O [L-Methionine]	–	–	–	–	–	–	–	–	–	–	–	–	Related impurities (%), Closed [1, 3]: 0.7%; Related impurities (%), Open [1, 3]: 6.4%; Related impurities (%), Closed [1, 4]: 0.7%; Related impurities (%), Open [1, 4]: 10.5%; Related impurities (%), Closed [1, 5]: 1.3%; Related impurities (%), Open [1, 5]: 52.7%; Related impurities (%), Closed [1, 6]: 1.0%; Related impurities (%), Open [1, 6]: 35.9%; Related impurities (%), Closed [1, 7]: 0.8%; Related impurities (%), Open [1, 7]: 19.3%; Related impurities (%), Closed [1, 8]: 0.7%; Related impurities (%), Open [1, 8]: 15.0%
O=S(=O)([O-])[O-].[Na+].[Na+] [Sodium Sulfate]	98.3	1.70	98.2	1.78	98.1	1.92	98.2	1.76	98.1	1.90	98.2	1.81	effect of antioxidant on sincalide stability (in words) [2]: essentially equivalent to the control formulation
O=S([O-])S(=O)(=O)[O-].[Na+].[Na+] [Sodium Metabisulfite]	98.2	1.76	98.3	1.69	98.2	1.79	98.3	1.67	98.3	1.66	98.3	1.73	–
O=C1O[C@H]([C@@H](O)CO)C(O)=C1O [Ascorbic Acid]	98.0	2.00	98.0	2.01	97.8	2.16	98.1	1.95	98.0	2.05	97.8	2.25	–
Benzalkonium Chloride	82.7	17.3	88.4	11.6	82.9	17.1	97.8	2.21	97.7	2.34	97.4	2.58	–
NCC(=O)O [L-Glycine]	–	–	–	–	–	–	–	–	–	–	–	–	Related impurities (%), Closed [1, 3]: 1.1%; Related impurities (%), Open [1, 3]: 51.1%; Related impurities (%), Closed [1, 4]: 1.6%; Related impurities (%), Open [1, 4]: 44.9%
N[C@@H](CS)C(=O)O [Cysteine]	97.8	2.20	97.7	2.32	98.0	2.05	98.2	1.85	98.1	1.87	98.1	1.91	–
N[C@@H](CCC(=O)N[C@@H](CS)C(=O)NCC(=O)O)C(=O)O [Glutathione]	98.1	1.94	98.2	1.85	97.9	2.13	98.1	1.90	98.3	1.74	98.2	1.82	–
CC(C)(C)CC(C)(C)c1ccc(OCCOCC[N+](C)(C)Cc2ccccc2)cc1 [Benzethonium Chloride]	92.1	7.93	88.0	12.0	92.6	7.36	97.9	2.13	98.0	1.98	98.0	1.96	effect of antioxidant on sincalide stability (in words) [2]: significant destabilizing effect
N[C@@H](CS)C(=O)O [L-Cysteine]	–	–	–	–	–	–	–	–	–	–	–	–	Related impurities (%), Closed [1, 3]: 1.0%; Related impurities (%), Open [1, 3]: 31.0%
